Experimental data published in patent US6756200B2, “Aberrantly methylated genes as markers of breast malignancy” (The Johns Hopkins University School of Medicine, priority 2001, dated 2004).
“Also recorded” adds a separate entry of the source.

Experiments:
Type in all cases: cell-based, human
σ CpG island = assay: Methylation-specific PCR of the σ CpG island after 5-aza-dC; conditions: Hs578t and MDA-MB-435 cells; 0.75 μM 5-aza-dC for 3 days
Protocol: Methylation-specific PCR (MSP). One μg genomic DNA was treated with sodium bisulfite as described in (Herman, et al. (1996) Proc. Natl. Acad. Sci. USA 93, 9821-9826), and was analyzed by MSP using a primer set that covered CG dinucleotide numbers 3, 4, 8 and 9. Primers specific for methylated DNA: 5′-[…]-3′ (sense; SEQ ID NO:37) and 5′-[…]-3′ (antisense; SEQ ID NO:38), and primers specific for unmethylated DNA: 5′-[…]-3′ (sense; SEQ ID NO:39) and 5′-[…]-3′(antisense; SEQ ID NO:40) yielded a 105-107 bp PCR product. The PCR conditions were as follows: 1 cycle of 95° C. for 5 min; 31 cycles of 95° C. for 45s, 56° C. for 30s and 72° C. for 30s; and 1 cycle of 72° C. for 4 min.
(§1) Cells were seeded at a density of 2×10^6 cells per 100-mm plate.

HOXA5 = HOXA5 mRNA re-expression by RT-PCR after 5-aza-dC; conditions: MDA-MB-231 cells; 0.75 μM 5-aza-dC
Protocol: RT-PCR was performed using primers: 5′ […]-3′ (sense; SEQ ID NO:75) and 5′[…]-3′ (antisense; SEQ ID NO:76).

WT1 = WT1 expression by RT-PCR after treatment of breast cancer cell lines with 5-aza-dC or TSA
Source text: (§2) Cell lines and finite life span cultures Cell lines were obtained from ATCC (Rockville, Md.) and grown according to conditions specified. Also utilized were three independent cultures of finite life span human mammary epithelial cells (HMEC): 16637 (Clonetics, Walkersville, Md.) and 1-26, 3-14 (kindly provided by Dr. Steve Ethier, Univ. Michigan, Ann Arbor, Mich.).
RT-PCR for WT1 mRNA Methods for RNA extraction and RT-PCR are known to those of skill in the art. The sequences of the primers used are as follows: for amplifying the 555 bp region surrounding WT1 exon 5, 5′-[…]-3′ (sense, nucleotides 882-901; Q ID NO:1) and 5′-[…]-3′ (antisense, nucleotides 1416-1437; SEQ ID NO:2); for amplifying the 382 bp region surrounding the KTS insert, 5′-[…]-3′ (sense, nucleotides 1320-1339; SEQ ID NO:3) and 5′-[…]-3′ (antisense, nucleotides 1685-1702; SEQ ID NO:4). Amplification was performed using a hot-start protocol: samples were heated to 94° C. for 4 minutes and then cooled to 80° C. prior to the addition of Taq polymerase (RedTaq, Sigma, St. Louis, Mo.). Samples were then heated to 94° C. for 30 seconds followed by either 50° C. for 30 seconds (for the KTS primers) or 56° C. for 30 seconds (for the Exon 5 primers) and then 72° C. for 1 minute for 40 cycles. PCR products were resolved by electrophoresis, using a 2% agarose gel for the exon 5-splice variants and a 12% polyacrylamide gel to resolve the KTS insert variants. Co-amplification of the ribosomal RNA 36B4 was performed as an internal control using the following primers: 5′-[…]-3′ (sense; SEQ ID NO:5) and 5′-[…]-3′ (antisense; SEQ ID NO:6).

MDA-MB-231 cells = assay: Growth inhibition (%) by cell counting with Trypan Blue
Source text: (§3) Cell cultures Human epithelial mammary cells (HEMC) from reduction mammoplasty including three mortal strains, 184, 48R and 172R, and two immortal strains, 184A1 and 184B5, were obtained and cultured according to the protocols designed by Dr Martha Stampfer (see the HMEC Homepage, http://www.lbl.gov/*mrgs/index.htlm) using Clonetics (Walkersville, Md., USA) reagents. Human breast cancer cell lines were maintained in Dulbecco's modified Eagle's medium (GIBCO) (Hs578t,MCF-7, MDA-MB-231 and T47D) or IMEM medium (Biofluids) (MDA-MB-435, MDA-MB-468, ZR751) with 5% fetal calf serum (FCS). For drug treatments, exponentially growing cells were seeded in 10 cm^2 plates at a density of 36105 cells/plate or in 6-well plates at 16105 cells/well. Cells were allowed to attach overnight before the addition of the appropriate concentration of 5-Aza-2′ deoxycytidine (5-Aza-CdR) (Sigma), Trichostatin A (TSA) (Sigma) or RA(Sigma). When reduction of retinoids was required, cells were treated in either medium with 0.5% FCS or charcoal-dextran stripped FCS (Hyclone). At the indicated time points, both attached and detached cells were harvested, counted with Trypan Blue (Life Technologies) and processed for DNA or RNA extraction. 5-Aza-CdR was dissolved in 0.45% NaCl containing 10 mM sodium phosphate (pH 6.8). Trichostatin A and all-trans-retinoic acid (RA) (Sigma) were reconstituted in absolute ethanol (solvent).

cyclin D2 = assay: Cyclin D2 mRNA re-expression by RT-PCR after 5-aza-dC or TSA; conditions: MDAMB231 and MCF7 cells
Protocol: RT-PCR. […] PCR was performed using the primers [NT] (sense; SEQ ID NO:15) and [NT] […] (sense; SEQ ID NO: 17) and [NT] […] (sense; SEQ ID NO:19) and [NT] antisense; SEQ ID NO:20).

14.3.3σ = 14.3.3σ expression in the same treated samples; conditions: same samples: MDA-MB-231 and MCF-7 cells treated with 5-aza-deoxyC or TSA
Source text: as §2

σ = σ gene expression by RT-PCR after 5-aza-dC; conditions: Hs578t and MDA-MB-435 cells; 0.75 μM 5-aza-dC for 3 days
Protocol: as §1
RT-PCR. […] PCR was performed using the σ-specific primers 5′-[…]-3′ (SEQ ID NO:41) and 5′-[…]-3′ (SEQ ID NO:42) using buffer conditions described herein. The PCR conditions were: 1 cycle of 95° C. for 5 min; 30 cycles of 60° C. for 45s, 72° C. for 45s and 95° C. for 45s. PCR samples were resolved by electrophoresis in a 2% agarose gel.

cyclin D2 promoter = assay: Methylation-specific PCR of the cyclin D2 promoter after 5-aza-dC; conditions: MDAMB231 and MCF7 cells; 0.75 μM 5-aza-dC
Protocol: Methylation-specific PCR (MSP). One μg genomic DNA or the 50 ul extract of microdissected cells was treated with sodium bisulfite as described in Herman J G, (1996), and was analyzed by MSP using primer sets located within the CpG-rich island in the cyclin D2 promoter. Primers specific for unmethylated DNA were 5′-[…]-3′ (sense; SEQ ID NO:21) and 5′-[…]-3′ (antisense; SEQ ID NO:22) and yielded a 223 base-pairs PCR product. Primers specific for methylated DNA were 5′-[…]-3′ (sense; SEQ ID NO:23) and 5′-[…]-3′ (antisense; SEQ ID NO:24) and yielded a 276 base-pair PCR product. The PCR conditions were as follows: 1 cycle of 95° C. for 5 min; 35 cycles of 95° C. for 30s, 55° C. for 30s and 72° C. for 45s; and 1 cycle of 72° C. for 5 min.

MCF-7 cells = assay: Pon A induction of HOXA5 in MCF-7 clones with ecdysone-inducible HOXA5: p53 pathway and apoptosis
Source text: Immunoblot Analysis: Proteins were visualized by Western analysis and 10% SDS-PAGE. The primary antibodies [anti-HOXA5 (HOXA5-2, BABCO), anti-p53 (AB-6, Oncogene Science), or anti-β-actin (AC-15, Sigma), anti-p21 (15091A, Pharmingen), anti-Mdm2 (65101A, Pharmingen), anti-PARP (AB-2, Oncogene Sciences), anti-dynein (Zymed) and anti- Na+, K+-ATPase (Ed Benz, Johns Hopkins) (also used as loading controls, with actin)] were used at 1:1000 dilution.
To test this possibility, breast cancer cells, MCF-7 and ZR75.1, which harbor wildtype p53 genes, were transfected with the full length HOXA5 and the ΔHOXA5 (homeodomain-deleted) expression plasmids and tested for colony-forming ability. No surviving colonies were obtained from HOXA5-transfected cells whereas those transfected with ΔHOXA5 and the vector control generated colonies with equal efficiency. To obtain stable cultures that could express HOXA5, clones of MCF-7 cells were generated in which the HOXA5 gene was placed under the control of an ecdysone-inducible promoter. Within 3 hours after induction of HOXA5 expression by the ecdysone analog, Ponasterone A (Pon A), the levels of p53 mRNA rose by 2-fold.

breast cancer cell lines = assay: Growth inhibition of a panel of breast cancer cell lines by RA; conditions: T47D, MDA-MB-435, MCF7 and ZR75-1 cell lines; 1 μM RA, 48 h
Source text: as §3, with “Trichostatin A and all-trans-retinoic acid (RA) (Sigma) were reconstituted in absolute ethanol (solvent).” left out

RAR β2 promoter = assay: Methylation of RAR β2 promoter CpG island (Southern blotting, MSP) after drug treatment; conditions: MCF7 cells; in the presence of RA
RAR β = RAR β expression by RT-PCR after drug treatment
Protocol: Human breast cancer cell lines were maintained in Dulbecco's modified Eagle's medium (GIBCO) (Hs578t,MCF-7, MDA-MB-231 and T47D) or IMEM medium (Biofluids) (MDA-MB-435, MDA-MB-468, ZR751) with 5% fetal calf serum (FCS). For drug treatments, exponentially growing cells were seeded in 10 cm^2 plates at a density of 36105 cells/plate or in 6-well plates at 16105 cells/well. […] When reduction of retinoids was required, cells were treated in either medium with 0.5% FCS or charcoal-dextran stripped FCS (Hyclone). At the indicated time points, both attached and detached cells were harvested, counted with Trypan Blue (Life Technologies) and processed for DNA or RNA extraction. 5-Aza-CdR was dissolved in 0.45% NaCl containing 10 mM sodium phosphate (pH 6.8). Trichostatin A and all-trans-retinoic acid (RA) (Sigma) were reconstituted in absolute ethanol (solvent).

[1] = 0.4 mM 5-Aza-CdR and/or 1 μM RA
[2] = 2 days, 100 ng/ml TSA and/or RA

Structure (SMILES): Nc1ncn([C@H]2C[C@H](O)[C@@H](CO)O2)c(=O)n1 [5-aza-dC, 5-aza-2′-deoxycytidine]
- methylation of the σ CpG rich region (MSP) (σ CpG island): demethylation
- expression of HOXA5 mRNA (HOXA5): re-initiated
- WT1 expression (WT1; MCF-7 cells, 0.75 μM 5-aza-dC, listed as 5-aza-deoxyC): not seen; also recorded: did not cause WT1 expression
- WT1 expression (WT1; MDA-MB-231 cells, 0.75 μM 5-aza-dC, listed as 5-aza-deoxyC): results in re-expression of the gene; also recorded: resulted in WT1 expression
- growth inhibition (MDA-MB-231 cells; [1]): 63%
- cyclin D2 mRNA expression (RT-PCR) (cyclin D2; 0.75 μM 5-aza-dC): restored
- expression of 14.3.3σ (14.3.3σ): restored expression
- σ gene expression (RT-PCR) (σ): reactivation of gene expression
- cyclin D2 promoter methylation (MSP) (cyclin D2 promoter): partially demethylated

Structure (SMILES): CC(C)CC[C@@H](O)[C@](C)(O)[C@H]1CC[C@@]2(O)C3=CC(=O)[C@@H]4C[C@@H](O)[C@@H](O)C[C@]4(C)[C@H]3CC[C@]12C [Pon A, Ponasterone A]
- DNA laddering (MCF-7 cells): observed
- levels of Bax protein (MCF-7 cells): not accompanied by a detectable change
- p53, p21, Mdm2 and HOXA5 induction (Western blotting) (MCF-7 cells): 2-5 fold
- cells with micronucleus formation, membrane blebbing and ghost cell features (MCF-7 cells; acridine orange staining): 70%
- cell death (MCF-7 cells; after 48 hours): 80-90%
- poly (ADP-ribose) polymerase cleavage (MCF-7 cells; by 12 hours): underwent cleavage
- cell morphology (MCF-7 cells; by 24 hours): cell shrinkage
- levels of p53 mRNA (MCF-7 cells; within 3 hours after induction): 2 fold

Structure (SMILES): CC1=C(/C=C/C(C)=C/C=C/C(C)=C/C(=O)O)C(C)(C)CCC1 [RA, all-trans-retinoic acid]
- growth inhibition (MDA-MB-231 cells; [1]): 52%
- growth inhibition (MDA-MB-231 cells; [2]): 52%
- growth inhibition (breast cancer cell lines): growth inhibition
- methylation at RAR β2 (RAR β2 promoter): persistence of methylation
- RAR β expression (RAR β; T47D, MDA-MB-435, MCF7 and ZR75-1 cell lines, 1 μM RA, 48 h): induction of RAR β expression

Structure (SMILES): CC(/C=C/C(=O)NO)=C\[C@@H](C)C(=O)c1ccc(N(C)C)cc1 [TSA, Trichostatin A]
- WT1 expression (WT1; MDA-MB-231 and MCF-7 cells (either cell line), 100 ng/ml TSA): no effect; also recorded: nor did TSA restore expression
- growth inhibition (MDA-MB-231 cells; [2]): 77%
- cyclin D2 mRNA expression (RT-PCR) (cyclin D2; 100 ng/ml TSA): re-expression
- expression of 14.3.3σ (14.3.3σ): restored expression
- RAR β mRNA expression (RT-PCR) (RAR β; MDA-MB-231 cells, 2 days, 100 ng/ml TSA with 1 μM RA): can reactivate RAR β expression
